Laboratory results: patent publication US12226385B2, “Synergistic composition for activating intracellular secondary messenger(cAMP) pathway” (CELAGENEX RESEARCH (INDIA) PRIVATE LTD., priority 2021, dated 2025)
Where two headings read alike, the source gives them in different places.

Columns and labels:
[1] = test system: experimental rat; assay: Novel Object Test in rats; type: in vivo
Description: (§1) Evaluation of physical parameters of the test substances in experimental rat.
(§2) • Species: Rat • Strain: Wister • Sex: Male • No. of animals: 48 Animals (n=6 per group) • Body weight: 180-200 gm Group, Designation and Dose Levels:
(§3) The tests were performed by the known technique.
(§4) The following behavioural test were conducted at the end of the treatment, • Force Swim Test • Open Field Test • Behavioural at Novel Object Test • Behaviour at Elevated Plus Maze (EPM) test
Table 5 represent behavioural at novel object test where latency time spent towards the novel objects indicated better memory and learning ability. This test is based on the spontaneous tendency of rats to spend more time exploring a novel object than a familiar one.

[2] = test system: experimental rat; assay: Force Swim Test in rats; type: in vivo; settings: male Wister rats, n=6, end of treatment, doses per Table 3
Description: as §1, §2, §3, §4

[3] = test system: cAMP; assay: Modulatory effect on cAMP levels in C6 cells (ELISA kit); type: cell-based; settings: C6 (Rat Glioblastoma) cells, 28 hours of incubation, doses per Table 1
Description: To assess the effectiveness of test substance on modulation of cAMP and evaluation of BDNF in Rat Glioblastoma cells.
The cytotoxicity profiling of the test substance was carried out to find the safe dose on C6 cells. […] The levels of cAMP in the cell lysate were measured using a suitable ELISA kit to infer the modulatory effect.
10 mg of test substance was separately dissolved in 100 μL of DMSO and volume was made up with Ham's F-12 medium supplemented with 2% inactivated FBS to obtain a stock solution of 10 mg/mL concentration and sterilized by 0.22μ syringe filtration. Serial two-fold dilutions were prepared from this stock solution for further studies.
C6 (Rat Glioblastoma) cell line was procured from NCCS, India. Stock cells was cultured in Ham's F-12 medium supplemented with 10% inactivated Fetal Bovine Serum (FBS), penicillin (100 IU/ml), streptomycin (100 μg/ml) and amphotericin B (5 μg/ml) in a humidified atmosphere of 5% CO2 at 37° C. until confluent. Passaging was done by centrifuging the cells, followed by seeding the pellet into a tissue culture vessel. The stock cultures were grown in 25 cm2 culture flasks and all experiments will be carried out in 96 microtitre plates (Tarsons India Pvt. Ltd., Kolkata, India).
To perform the assay, cells were seeded in 24-well plates containing […] complete Ham's F-12 with 4.5 g/L glucose. […] Then, the selected dose of test substances and positive control (Clozapine) was added to the cells. After 28 hours of incubation, the cell supernatants from respective treatment wells were collected and assayed to estimate the levels of cyclic AMP using a commercially available kit.

[4] = test system: BDNF; assay: Estimation of BDNF levels in C6 cells (Rat BDNF ELISA kit); type: cell-based; settings: C6 (Rat Glioblastoma) cells, 28 hours of incubation, doses per Table 1
Description: To perform the assay, cells were seeded in 24-well plates containing 500 μL complete Ham's F-12 with 4.5 g/L glucose. After 24 h, the confluent monolayer of cells was firstly incubated with the corresponding inhibitor compound for 1-4 h (based on standardization) minutes in the incubator at 37° C. and 5% CO2. Then, the selected dose of test substances and positive control was added to the cells. After 28 hours of incubation, the cell supernatants from respective treatment wells were collected and assayed to estimate the levels of BDNF using a commercially available Rat BDNF ELISA kit.

[5] = test system: CREB (Cyclic AMP Response Element-Binding Protein); assay: Estimation of CREB (Cyclic AMP Response Element-Binding Protein); type: cell-based, Rat; settings: doses per Table 1
Description: g. Estimation of CREB (Cyclic AMP Response Element-Binding Protein) nM Results:
(§5) The estimation of modulatory effect of test substance on biochemical parameters were analysed in C6 (Rat Glioblastoma) cell. […] This indicated the increase in synapse number and neuroplasticity.

[6] = test system: ALCAR; assay: Estimation of ALCAR plasma level (ALCAR ELISA kit); type: cell-based, Rat; settings: doses per Table 1
Description: f. Estimation of ALCAR Plasma Level (Nmol/Ml): Assay Performed by ALCAR ELISA Kit
as §5

[7] = test system: experimental rat; assay: Elevated Plus Maze (EPM) test in rats; type: in vivo
Description: as §1, §2, §3, §4

[8] = test system: experimental rat; assay: Open Field Test in rats; type: in vivo
Description: as §1, §2, §3, §4

[9] = test system: Adult Patients with Major Depressive Disorder; assay: Double-blind, fixed-dose clinical study, Hamilton Rating Scale for Depression (HAM-D); type: in vivo, human
Description: Composition-1—(3R)-3-acetyloxy-4-(trimethylazaniumyl)butanoate+N-4-Aminobutylguanidine—500 mg+250 mg
(§6) A double-blind, Fixed-dose study, 80 participants (males and females) with major depression were randomly assigned to receive test samples. Age eligibility for study include 18 Years to 65 Years (Adult, Older Adult)
Participants were evaluated at visits at screening, baseline/randomization, and 4, 8, and 12 weeks after randomization. Masking—Triple (Participant, Investigator, Outcomes Assessor); Parallel Assignment
Pre-assignment Details: A one-week single-blind placebo period was completed prior to randomization.
Change From Baseline in Hamilton Rating Scale for Depression (HAM-D) at Week 4, 8 and 12 [Time Frame: Change from baseline in HAM-D at week 4, 8 and 12]
The HAMD is a clinician-rated 21-item scale was used to rate the patient's depressive state. It was also used to identify obsessive-compulsive, genital, and somatic symptoms, as well as diurnal variation in the presence of symptoms. Each item was scored on a 1, 2, 3, 4 or 5-point Likert scale. A score of 0 indicated the absence of symptoms, and a score of 2, 3 or 4 indicated symptoms of maximum severity. The total score range is 0 to 62 (higher score indicates a greater depressive state).

[10] = test system: Adult Patients with Major Depressive Disorder; assay: Clinical study, serum Acetyl-L carnitine (ALCAR) levels; type: in vivo, human
Excerpt: as §6
To measure serum Acetyl-L carnitine levels pre-treatment and end of 12 weeks and correlate it with severity of depression and treatment outcomes.

[11] = male Wister rats, n=6, end of treatment, doses per Table 3
[12] = pretreatment, whole arm (Table 8)

CN1CCN(C2=Nc3cc(Cl)ccc3Nc3ccccc32)CC1 [Clozapine]
Latency to reach Novel Object [1, 11]: 03 s | Number of times sniffing the object [1, 11]: 62 times | Time Spent sniffing the object [1, 11]: 13% | Force Swim Test Immobility [2]: 189 s | cAMP [3]: 4.1 pmol/µL | BDNF [4]: 77 ng/L | CREB [5]: 0.5 nM | Plasma ALCAR [6]: 21 nmol/mL | Number of entries in to open arm [7, 11]: 10 times | Number of times head dipping [7, 11]: 18 times | Number of times rearing [7, 11]: 25 times | Time Spent Rearing [7, 11]: 19% | Time in the open arms [7, 11]: 15% | time spent head dipping [7, 11]: 21% | Open Field Test Distance walked in corners [8, 11]: 2200 cm | Open Field Test Latency to reach center [8, 11]: 38 s

CN(C)CCC[C@@]1(c2ccc(F)cc2)OCc2cc(C#N)ccc21 [Escitalopram]
Latency to reach Novel Object [1, 11]: 32 s | Number of times sniffing the object [1, 11]: 48 times | Time Spent sniffing the object [1, 11]: 09% | Force Swim Test Immobility [2]: 68 s | Mean HAM-D Score ([9]; Baseline): 26.2 | Mean HAM-D Score ([9]; Week-4): 25.72 | Non-Responder Rate ([9]; Week-4): (100%) | Non-Responder Rate, patients/total ([9]; Week-4): 40/40 | Remission Rate (HAM-D Score <7) ([9]; Week-4): (0%) | Remission Rate (HAM-D Score <7), patients/total ([9]; Week-4): 0/40 | Responder Rate (50% Reduction from baseline) ([9]; Week-4): (0%) | Responder Rate (50% Reduction from baseline), patients/total ([9]; Week-4): 0/40 | Mean HAM-D Score ([9]; Week-8): 21.45 | Non-Responder Rate ([9]; Week-8): (97.5%) | Non-Responder Rate, patients/total ([9]; Week-8): 39/40 | Remission Rate (HAM-D Score <7) ([9]; Week-8): (0%) | Remission Rate (HAM-D Score <7), patients/total ([9]; Week-8): 0/40 | Responder Rate (50% Reduction from baseline) ([9]; Week-8): (2.5%) | Responder Rate (50% Reduction from baseline), patients/total ([9]; Week-8): 1/40 | Mean HAM-D Score ([9]; Week-12): 13.75 | Non-Responder Rate ([9]; Week-12): (52.5%) | Non-Responder Rate, patients/total ([9]; Week-12): 21/40 | Remission Rate (HAM-D Score <7) ([9]; Week-12): (17.5%) | Remission Rate (HAM-D Score <7), patients/total ([9]; Week-12): 7/40 | Responder Rate (50% Reduction from baseline) ([9]; Week-12): (30%) | Responder Rate (50% Reduction from baseline), patients/total ([9]; Week-12): 12/40 | Non-Responder Remission Rate in Female Subgroup ([9]; Week-12, female subgroup): (75%) | Non-Responder Remission Rate in Female Subgroup, patients/total ([9]; Week-12, female subgroup): 21/28 | Responder Remission Rate in Female Subgroup ([9]; Week-12, female subgroup): (25%) | Responder Remission Rate in Female Subgroup, patients/total ([9]; Week-12, female subgroup): 7/28 | Mean HAM-D Score at pretreatment [9, 12]: 26.2 | cAMP [3]: 6.0 pmol/µL | CREB [5]: 0.8 nM | Plasma ALCAR [6]: 23 nmol/mL | Number of entries in to open arm [7, 11]: 07 times | Number of times head dipping [7, 11]: 12 times | Number of times rearing [7, 11]: 18 times | Time Spent Rearing [7, 11]: 16% | Time in the open arms [7, 11]: 11% | time spent head dipping [7, 11]: 12% | Open Field Test Distance walked in corners [8, 11]: 1900 cm | Open Field Test Latency to reach center [8, 11]: 26 s | Mean Serum ALCAR, Non-Responder group ([10]; Baseline): 0.94 µg/mL | Mean Serum ALCAR, Remission group ([10]; Baseline): 1.20 µg/mL | Mean Serum ALCAR, Responder group ([10]; Baseline): 0.91 µg/mL | Mean Serum ALCAR, Non-Responder group ([10]; Week-12): 0.99 µg/mL | Mean Serum ALCAR, Remission group ([10]; Week-12): 3.53 µg/mL | Mean Serum ALCAR, Responder group ([10]; Week-12): 2.19 µg/mL | Mean serum ALCAR at pretreatment [10, 12]: 1.01 microgram/ml

CC(=O)O[C@H](CC(=O)[O-])C[N+](C)(C)C [Group 4, (3R)-3-acetyloxy-4-(trimethylazaniumyl)butanoate]
Latency to reach Novel Object [1, 11]: 35 s | Number of times sniffing the object [1, 11]: 49 times | Time Spent sniffing the object [1, 11]: 08% | Force Swim Test Immobility [2]: 55 s | cAMP [3]: 4.8 pmol/µL | BDNF [4]: 88 ng/L | CREB [5]: 1.0 nM | Plasma ALCAR [6]: 25 nmol/mL | Number of entries in to open arm [7, 11]: 08 times | Number of times head dipping [7, 11]: 12 times | Number of times rearing [7, 11]: 18 times | Time Spent Rearing [7, 11]: 15% | Time in the open arms [7, 11]: 12% | time spent head dipping [7, 11]: 11% | Open Field Test Distance walked in corners [8, 11]: 1860 cm | Open Field Test Latency to reach center [8, 11]: 27 s

N=C(N)NCCCCN [Group 5, N-4-aminobutylguanidine]
Time Spent sniffing the object [1]: 09% | Latency to reach Novel Object [1, 11]: 36 s | Number of times sniffing the object [1, 11]: 47 times | Force Swim Test Immobility [2]: 59 s | cAMP [3]: 5.1 pmol/µL | BDNF [4]: 91 ng/L | CREB [5]: 1.2 nM | Plasma ALCAR [6]: 22 nmol/mL | Time Spent Rearing [7]: 13% | time spent head dipping [7]: 10% | Number of entries in to open arm [7, 11]: 07 times | Number of times head dipping [7, 11]: 11 times | Number of times rearing [7, 11]: 16 times | Time in the open arms [7, 11]: 11% | Open Field Test Distance walked in corners [8]: 1820 cm | Open Field Test Latency to reach center [8]: 25 s
